The numbers were not newly measured in patent publication US12201712B2, “Method for dyeing keratinous material, comprising the use of an organosilicon compound, a phosphoric acid ester and a dyeing compound” (Henkel AG & Co. KGaA, priority 2020, dated 2025), which cites them from elsewhere.

Regarding `O=S(=O)(O)c1ccc(N=Nc2c(O)ccc3ccccc23)cc1` [Acid Orange 7, 4-[(2-hydroxy-1-naphthyl)azo]benzene sulphonate], where the note is “25° C.”, the solubility in water result was “more than 7 g/L”.

Consider `CCN(Cc1cccc(S(=O)(=O)O)c1)c1ccc(C(=C2C=CC(=[N+](CC)Cc3cccc(S(=O)(=O)O)c3)C=C2)c2ccccc2S(=O)(=O)[O-])cc1` [Acid Blue 9], for which the water solubility entry (25° C.) is on record as “greater than 20 wt. %”.

On to `O=[N+]([O-])c1cc([N+](=O)[O-])c2ccc(S(=O)(=O)O)cc2c1O` [Acid Yellow 9, 8-hydroxy-5,7-dinitro-2-naphthalenesulfonic acid], for which, under “25° C.”, the solubility in water result is “above 40 g/L”.

Turning to `O=C(O)C1=NN(c2ccc(S(=O)(=O)O)cc2)C(=O)C1N=Nc1ccc(S(=O)(=O)O)cc1` (stereo not shown) [Acid Yellow 23, 4,5-dihydro-5-oxo-1-(4-sulfophenyl)-4-((4-sulfophenyl)azo)-1H-pyrazole-3-carboxylic acid], the “solubility in water (in words)” value (at 25° C.) is recorded as “readily soluble in water”.
